Measurements reported in paper PMC9962402, “Fast and Simple Liquid Chromatography-Isotope Dilution Tandem Mass Spectrometry Method for Therapeutic Drug Monitoring of Dalbavancin in Long-Term Treatment of Subacute and/or Chronic Infections” (Pharmaceutics, 2023).

Legend:
[1] = Stability of DBV in sample extracts (autosampler, freezer); assay type: physicochemical; settings: for Avg Accuracy (Bias%): vs nominal concentration, LC-MS/MS
[2] = Freeze-thaw stability of DBV in plasma samples
Procedure: Stability of DBV was assessed by comparing the nominal concentrations of LQC, MQC and HQC with those observed under two different conditions: • sample extracts kept on board at 10 °C for 24 h and frozen at −80 °C for 24 h; • plasma samples analyzed after three complete freeze and thaw cycles (from −80 °C to 25 °C).
Stability in the above operating conditions was deemed suitable if DBV concentrations were within ±15% of the nominal value.

[3] = human, in vivo
Procedure: Plasma samples (3 μL) were added to 47 μL of ultrapure water to achieve a dilution factor of 17 and then mixed with 150 μL of the IS-methanol solution (1 mg/L DBV-d6). The mixture was vortexed for 15 s and then centrifuged at room temperature at 13,000 rpm for 5 min. Subsequently, 50 µL of the clear supernatant was transferred to an autosampler vial, and a volume of 3 µL was injected into the LC-MS/MS system (Figure 2).
The presented ITD LC-MS/MS method was tested for measuring DBV concentrations in patients receiving DBV for the treatment of long-term subacute or chronic documented Gram-positive infections (namely osteoarticular infections, endocarditis, and endovascular prosthetic infections). In our study, DBV treatment was started according to the internal protocol consisting of two 1500 mg doses one week apart. Requirement for additional doses was assessed by the treating physician after at least four weeks according to the underlying clinical conditions of each patient. […] The number of samples assessed was 520. Samples for Dalbavancin TDM were usually collected at predefined timeframes between 21 and 35 days after first administration. […] Blood samples respected the cold chain delivery and were processed either immediately after delivery or after freezing at −80 °C until analysis, depending on case-by-case.

[4] = human; cited from earlier work

In the case of CN[C@H]1C(=O)N[C@@H]2Cc3ccc(cc3)Oc3cc4cc(c3O[C@@H]3O[C@H](C(=O)O)[C@@H](O)[C@H](O)[C@H]3NC(=O)CCCCCCCCC(C)C)Oc3ccc(cc3Cl)[C@@H](O)[C@@H]3NC(=O)[C@H](NC(=O)[C@@H]4NC(=O)[C@@H](NC2=O)c2cc(cc(O)c2Cl)Oc2cc1ccc2O)c1ccc(O)c(c1)-c1c(O[C@H]2O[C@H](CO)[C@@H](O)[C@H](O)[C@@H]2O)cc(O)cc1[C@@H](C(=O)NCCCN(C)C)NC3=O [DBV, Dalbavancin], the “Avg Accuracy (Bias%)” value ([1]; extract (MeOH:H2O protein precipitation of plasma) kept in autosampler at 10 °C, post 24 h, Low QC 7 mg/L, acceptance ±15%) is reported as 22.1%, the “Avg Accuracy (Bias%)” value ([1]; extract in freezer (−80 °C) post 24 h, High QC 280 mg/L) is reported as 12.3% and the “Avg Accuracy (Bias%)” value ([1]; extract in freezer (−80 °C) post 24 h, Low QC 7 mg/L) is reported as 16.8%. The “Avg Accuracy (Bias%)” value ([1]; extract in freezer (−80 °C) post 24 h, Medium QC 70 mg/L) was 6.7%, the “Avg Accuracy (Bias%)” value ([1]; extract kept in autosampler at 10 °C, post 24 h, High QC 280 mg/L) was 14.8% and the “Avg Accuracy (Bias%)” value ([1]; extract kept in autosampler at 10 °C, post 24 h, Medium QC 70 mg/L) was 9.4%. The “time for which autosampler extracts were stable” value ([1]; extracts kept at 10 °C) was “at least 24 h”, the “change of DBV concentrations after freeze and thaw cycles” value [2] was “decreased” and the “Avg Accuracy (Bias%)” value ([2]; human plasma samples, 1 freeze-thaw cycle (−80 °C to 25 °C), Low QC 7 mg/L, vs nominal, LC-MS/MS) was 14.8%. For the same compound, the “DBV concentration, first quartile” value [3] was 11 mg/L, the “DBV concentration, maximum” value [3] was 77.0 mg/L and the “DBV concentration, minimum” value [3] was 2.0 mg/L. For the same compound, the “DBV concentration, third quartile” value [3] was 31.8 mg/L, the “DBV concentration, median” value ([3]; 1500 mg) was 18 mg/L and the plasma protein binding [4] was “very high”.
